Paper PMC12767106, “In Situ Assembly of Transformable Monopeptide on Activated Neutrophils Attenuates NETs‐Induced Hepatocellular Carcinoma Metastasis by Disrupting NE Nuclear Translocation” (Advanced Science, 2025)

Assays:
[1] = system: mouse red blood cells (RBCs); experiment: Hemolysis assay; assay type: cell-based; conditions: 2% RBC suspension in PBS, 1 h, 37 °C, absorbance at 541 nm, triplicate
Procedure: Hemolysis Assay of FTP-NPs
To assess the hemolytic activity of FTP-NPs, red blood cells (RBCs) were harvested from C57BL/6 mice (aged 6–8 weeks, female). The mice were euthanized by cervical dislocation, and blood was collected via cardiac puncture into heparinized tubes. Blood was then immediately diluted with an equal volume of phosphate-buffered saline (PBS) and centrifuged at 1500 g for 10 minutes to isolate the RBCs. The supernatant was discarded, and the RBC pellet was washed three times with PBS to remove any residual plasma and other cellular components. The final RBC suspension was adjusted to a 2% hematocrit using PBS. FTP-NPs were synthesized as described previously. Briefly, FTP-NPs were prepared by self-assembly of peptidic […]
concentration was tested in triplicate. For the hemolysis assay, 200 μL of the 2% RBC suspension was incubated with 200 μL of FTP-NPs at the specified concentrations in a 96-well plate for 1 hour at 37°C under gentle shaking. […] The hemoglobin released into the supernatant was quantified by measuring the absorbance at 541 nm (A541) using a microplate reader. The percentage of hemolysis was calculated using the following formula: Hemolysis %= (Asample−ANC)/ (APC−ANC) *100%. Where Asample is the absorbance of the sample, ANC is the absorbance of the negative control, and APC is the absorbance of the positive control. […]

Hepa1-6 cells = experiment: Scratch (wound healing) assay; assay type: cell-based, mouse; conditions: 24 h, medium from activated neutrophils treated with NPs, mean ± s.d., n = 3
Procedure: Cell migration and invasion assay
To produce cell gaps for cell scratch tests, Hepa1-6/luc cells were injected into culture inserts (IBIDI, Germany).
After 24 hours, the cells were treated with Resting neutrophils, Control, NFTP-NPs, FTP-NPs, and NEi groups.
Cell migration was monitored during the overnight culture of the cells. […]
Matrigel tube formation assay
Murine C166 endothelial cells (3×10^4cells/well) were placed on 96-well plates coated with Matrigel (356231,
Corning, New York, USA) and incubated with various treatments. […]
In vitro permeability assays and trans-endothelial invasion assays
For in vitro permeability assays, C166 cells were treated with Resting neutrophils, Control, NFTP-NPs, FTP-
NPs, and NEi groups for 48 h to form an endothelial monolayer, and then Evans Blue (PHYGENE, China) was
added to the upper layer of the transwell filters (0.4 μm, Corning). […]
All the experiments were performed thrice. […]

activated neutrophils = experiment: Recognition of activated versus resting neutrophils, flow cytometry of PpIX; assay type: cell-based, mouse; conditions: 50 µM, 1 h, neutrophils activated with PMA 100 nM, n = 3

PpIX-GFFVLK-EAIPMSIPPEVK [FTP-NPs] was tested, and the “maximum observed hemolysis rate” value [1] was “approximately 0.9%”, the wound healing rate (Hepa1-6 cells) was 5.2% ± 1.8% and the “PpIX fluorescence of activated neutrophils relative to resting neutrophils” value (activated neutrophils) was “about 2.8 times”.
